Measured values from ChEMBL document CHEMBL2073852, “Transport of fluorescein methotrexate by multidrug resistance-associated protein 3 in IEC-6 cells” (Am J Physiol Gastrointest Liver Physiol, 2003).

Key:
Format in all cases: functional, cell membranes, Membrane vesicle
[1] = biological target: ATP-binding cassette sub-family C member 3 (Rattus norvegicus, UniProt O88563); assay: TP_TRANSPORTER: inhibition of F-MTX uptake (F-MTX: 5.0 uM, E217betaG: 75.0 uM) in membrane vesicles from IEC-6 cells; parameters: scale not given: the % may be the effect or the level left; settings: iec-6, 75 µM
[2] = biological target: T1, Mrp3 (ATP-binding cassette sub-family C member 3, ABCC3) (Rattus norvegicus, UniProt O88563); assay: TP_TRANSPORTER: inhibition of F-MTX uptake (F-MTX: 5.0 uM, E217betaG: 75.0 uM) in membrane vesicles from Mrp3-Sf9 cells; parameters: scale not given: the % may be the effect or the level left; settings: membrane vesicles from Mrp3-expressing Sf9 cells, probe F-MTX; read-out: Activity
[3] = biological target: T1, Mrp3 (ATP-binding cassette sub-family C member 3, ABCC3); assay: TP_TRANSPORTER: inhibition of F-MTX uptake (F-MTX: 5.0 uM, MK-571: 100.0 uM) in membrane vesicles from IEC-6 cells; parameters: scale not given: the % may be the effect or the level left; settings: probe F-MTX, read-out: Activity
[4] = biological target: T1, Mrp3 (ATP-binding cassette sub-family C member 3, ABCC3); assay: TP_TRANSPORTER: inhibition of F-MTX uptake (F-MTX: 5.0 uM, MK-571: 100.0 uM) in membrane vesicles from Mrp3-Sf9 cells; parameters: scale not given: the % may be the effect or the level left; settings: membrane vesicles from Mrp3-expressing Sf9 cells, probe F-MTX; read-out: Activity
[5] = substrate: CN(Cc1cnc2nc(N)nc(N)c2n1)c1ccc(C(=O)N[C@@H](CCC(=O)O)C(=O)O)cc1; assay: TP_TRANSPORTER: uptake in membrane vesicles from Mrp3-Sf9 cells
[6] = substrate: CN(Cc1cnc2nc(N)nc(N)c2n1)c1ccc(C(=O)N[C@@H](CCC(=O)O)C(=O)O)cc1; assay: TP_TRANSPORTER: uptake in membrane vesicles from IEC-6 cells

Molecule: C[C@]12CC[C@@H]3c4ccc(O)cc4CC[C@H]3[C@@H]1CC[C@@H]2O[C@@H]1O[C@H](C(=O)O)[C@@H](O)[C@H](O)[C@H]1O [ESTRADIOL 17B GLUCURONIDE]
- Activity [1]: 41.7%
- activity at 75 µM [2]: 19.2%

Molecule: CN(C)C(=O)CCSC(SCCC(=O)O)c1cccc(/C=C/c2ccc3ccc(Cl)cc3n2)c1 (stereo unspecified) [MK-571]
- activity at 100 µM [3]: 9.5%
- activity at 100 µM [4]: 4.9%

B1: ATP-binding cassette sub-family C member 3 (Rattus norvegicus) (protein)
chain: MDRLCGSGELGSKFWDSNLTVYTNTPDLTPCFQNSLLAWVPCIYLWAALPCYLFYLRHHRLGYIVLSCLSRLKTALGVLLWCISWVDLFYSFHGLVHGSSPAPVFFITPLLVGITMLLATLLIQYERLRGVRSSGVLIIFWLLCVICAIIPFRSKILLALAEGKILDPFRFTTFYIYFALVLCAFILSCFQEKPPLFSPENLDTNPCPEASAGFFSRLSFWWFTKLAILGYRRPLEDSDLWSLSEEDCSHKVVQRLLEAWQKQQTQASGPQTAALEPKIAGEDEVLLKARPKTKKPSFLRALVRTFTSSLLMGACFKLIQDLSPSSTHSCSASSSGLFRPHGPYWWGFLLAGLMFVSSTMQTLILHQHYHCIFVMALRIRTAIIGVIYRKALTITNSVKREYTVGEMVNLMSVDAQRFMDVSPFINLLWSAPLQVILAIYFLWQILGPSALAGVAVIVLLIPLNGAVSMKMKTYQVQQMKFKDSRIKLMSEILNGIKVLKLYAWEPTFLEQVEGIRQGELQLLRKGAYLQAISTFIWVCTPFMVTLITLGVYVCVDKNNVLDAEKAFVSLSLFNILKIPLNLLPQLISGMTQTSVSLKRIQDFLNQDELDPQCVERKTISPGRAITIHNGTFSWSKDLPPTLHSINIQIPKGALVAVVGPVGCGKSSLVSALLGEMEKLEGAVSVKGSVAYVPQQAWIQNCTLQENVLFGQPMNPKRYQQALETCALLADLDVLPGGDQTEIGEKGINLSGGQRQRVSLARAVYSDANIFLLDDPLSAVDSHVAKHIFDQVIGPEGVLAGKTRVLVTHGISFLPQTDFIIVLADGQITEMGHYSELLQHDGSFANFLRNYAPDENQEANEGVLQHANEEVLLLEDTLSTHTDLTDTEPAIYEVRKQFMREMSSLSSEGEGQNRPVLKRYTSSLEKEVPATQTKETGALIKEEIAETGNVKLSVYWDYAKSVGLCTTLFICLLYAGQNAVAIGANVWLSAWTNDVEEHGQQNNTSVRLGVYATLGILQGLLVMLSAFTMVVGAIQAARLLHTALLHNQIRAPQSFFDTTPSGRILNRFSKDIYVIHEVLAPTILMLFNSFYTSISTIVVIVASTPLFCVVVLPLAVFYGFVQRFYVATSRQLKRLESVSRSPIFSHFSETVTGTSVIRAYGRVQDFKVLSDAKVDSNQKTTYPYIASNRWLGVHVEFVGNCVVLFSALFAVIGRNSLNPGLVGLSVSYALQVTLSLNWMIRTLSDLESNIIAVERVKEYSKTETEAPWVLESNRAPEGWPRSGVVEFRNYSVRYRPGLELVLKNLTLHVQGGEKVGIVGRTGAGKSSMTLCLFRILEAAEGEIFIDGLNVAHIGLHDLRSQLTIIPQDPILFSGTLRMNLDPFGRYSDEDIWRTLELSHLSAFVSSQPTGLDFQCSEGGDNLSVGQRQLVCLARALLRKSRVLVLDEATAAIDLETDDLIQGTIRTQFEDCTVLTIAHRLNTIMDYNRVLVLDKGVVAEFDSPVNLIAAGGIFYGMAKDAGLA
- Km [5]: 4.5 µM
- Km [6]: 11.7 µM
